In general, IC50 refers to the midpoint of a concentration-inhibition curve.

A short description of data set [1]: Pharmacokinetic analysis after subcutaneous administration. In kind it is in vivo, mice.
For data set [2], the system named is cultured human tumor cell lines (Table 4) and normal human fibroblast cell line MRC5. In words: Cellular toxicity, MTS dye metabolism assay. To be noted: 200 μM continuously for 48 h. A general note: Tetrazolium dyes change colour on reduction, which living cells bring about.
Description: Cultured cells were distributed on 96-well microtiter plates and allowed to adhere for at least 16 h.
A further data set addresses T1, human DNA-PK (Homo sapiens, UniProt P78527).
T1 construct: The frozen HeLa cell pellet was thawed at 37° C. and immediately centrifuged; endogenous in cells; host or cells: HeLa S3 cells (ATCC CCL-2.2); Endogenous enzyme purified via S100-2 fraction, Q-Sepharose FF and SP-Sepharose FF (fraction IV)
Description: Standard DNA-PK assay (p53 peptide phosphorylation). In kind it is biochemical. As to conditions: read-out: IC50 (nM) DNA-PK Assay. The method, then:
Reactions were carried out at room temperature. Reactions were started by addition of ATP and stopped by application to phosphocellulose paper. Reaction products spotted onto phosphocellulose paper were washed five times with a total volume of at least 250 mL 10% acetic acid or 150 mM phosphoric acid. The paper was air dried and radioactivity was determined in a Beckman LS6000IC scintillation counter.

Data set [3] concerns thymocytes from BALB/c and BALB/c p53-/p53- mice; HL60, Jurkat, JY, B16/F10, WS1. Description: Cell viability, trypan blue exclusion assay. To be noted: up to 32 μM (thymocytes), up to 25 μM (cell lines), several days. The class given is cell-based, human and mouse. The method, then:
Cell viability was also tested during drug treatment using the trypan blue exclusion assay. […] Cultured cells were incubated in the presence of varying concentrations of 2-hydroxy-4-morpholin-4-yl-benzaldehyde up to 32 μM. Cultured human and mouse cell lines were incubated in RPMI 1640 media containing 10% FBS, 100 U/mL penicillin and 100 μg/mL streptomycin at 37° C. with 5% CO2 in a humidified incubator with 2-hydroxy-4-morpholin-4-yl-benzaldehyde for several days. Tumor cell lines, HL60, Jurkat, JY and B16/F10 and the normal cell line WS1 were tested using this assay when incubated at drug concentrations up to 25 μM.

The test system of data set [4] is DR3 cells (cultured mouse B-lymphocytes). Description: V(D)J recombination assay. The class given is cell-based. To be noted: 50 μM. The method, then: Recombination assays were performed as previously described (Leu et al., Mol. Cell. Biol 15:5657-5670 (1995)). […] Cells were concentrated and washed in HBS (containing 30 mM HEPES-KOH, pH 7.5, 140 mM NaCl, and 5 mM KCl) and resuspended in HBS at a density of 2.0×10^8 cells/mL. Cells (1.0×10^7) were transiently transfected by electroporation with 10 μg of the recombination substrate pJH200 (Leu et al., Mol. Cell. Biol. 15:5657-5670 (1995)) and transferred to a 90 mm cell culture dish containing 8 mL media with or without 2-hydroxy-4-morpholin-4-yl-benzaldehyde as described above. After 2 days, cells were removed from the dish with a rubber policeman, concentrated, washed one time with PBS, and resuspended in 0.1 mL lysis buffer (0.3% Triton X-100, 50 mM Tris-HCl, pH 7.5, 50 mM EDTA). Following a five min incubation at room temperature, cellular debris was removed by centrifugation at 12,000 rpm for two min in a microfuge. The supernatant was extracted sequentially with phenol and chloroform/[…] (24:1), after which, one tenth volume 3 M sodium acetate and 2 volumes cold 100% ethanol were added to the aqueous phase. Precipitated nucleic acid was collected by centrifugation at 12,000 rpm for 15 min and suspended in 25 μL water. An aliquot of the material was used to transform DH5α cells by electroporation. […]

In data set [5] the test system is Colon carcinoma cells (HCT116).
The subject of data set [6] is HCT116 cells (human colon carcinoma) xenograft tumors. In words: Animal tumor model, drug plus γ-radiation. In kind it is in vivo, athymic BALB/c (nu/nu) mice. Further details: tumor growth with radiation plus drug: dose or concentration left out as unconfirmed. The method, then:
HCT116 cells (human colon carcinoma) were used to propagate xenograft tumors in 6-8 week old female athymic BALB/c (nu/nu) mice. Mice were maintained in a laminar airflow cabinet under pathogen-free conditions and fed sterile food and water ad libitum. HCT116 cells were grown to subconfluence in McCoy's media supplemented with 10% FBS, 100 U/mL penicillin, 100 μg/mL streptomycin, and 1.5 mM L-glutamine in a 5% CO2 humidified environment. Single cell suspensions were prepared in CMF-PBS (0.9 mM KCl, 2.7 mM KH2PO4, 13.8 mM NaCl, pH 7.5), and cell concentration adjusted to 4×10^7 cells/mL. Mice were inoculated subcutaneously (s.c.) on the right flank or right leg with a total of 4×10^6 cells (100 μL).
Mice were randomized (5 mice/group) into four treatment groups and used when tumors reached a weight of 75 to 100 mg (usually 7 to 11 days post-inoculation). Tumors were measured with vernier calipers and tumor weights were estimated using the empirically-derived formula below. Tumor weight(mg)=tumor length(mm)×tumor width(mm)^2/3.3. […] Tumor size was monitored every other day for the duration of the experiment.

Data set [7] deals with MDA-MB231 (human breast carcinoma) cells. Description: DNA double-strand break repair assay (pulse field electrophoresis). As to conditions: 25 Gy; concentrations which enhanced radiation induced cell killing. In kind it is cell-based. The method, then: To further determine the cellular effect of DNA-PK inhibitors, an assay to measure chromosomal discontinuities was employed. Ionizing radiation induces chromosomal DNA double-strand breaks. Following high dose radiation, chromosomes can be extracted from cells and fractionated by pulse field electrophoresis to distinguish chromosomal fragments from intact larger chromosomes. Using this technique, the activity of DNA-PK inhibitors was measured.
MDA-MB231 (human breast carcinoma) cells were seeded onto T25 flasks with RPMI1640+10% FBS, 2 mM L-glutamine, penicillin G 100 U/ml-streptomycin sulfate 10 μg/ml, 1 mM Na pyruvate. When confluent, media was removed and replaced with media containing DNA-PK inhibitor or vehicle. Cells were incubated at 37° C. for 1 hr in a humidified chamber with 5% CO2. Media then was removed and flasks were filled with ice-cold D-PBS and either: (a) processed immediately; (b) irradiated (25 Gy in a ^137Cs Mark I irradiator at a flux of 335 rad/min) and processed immediately; (c) irradiated and incubated for 2 hr in complete RPMI1640+vehicle at 37° C. (in humidified 5% CO2 atmosphere to allow for DNA repair), or (d) irradiated and incubated for 2 hr in complete RPMI1640+DNA-PK inhibitor compound. […] Chromosomal DNA was visualized with SYBR-Gold (Molecular probes # S-11494) and the fluorescent image quantified on the STORM 860 (Molecular Dynamics).

In data set [8] the test system is human colon carcinoma cell line HCT116. Description: cells. The class given is cell-based. How it is done:
Cells plated at a density of 5,000 to 20,000 per well in 96-well microtiter plates were grown in RMPI 1640 containing 10% FBS, 100 U/mL penicillin and 100 μg/mL streptomycin, for 18 h at 37° C. in a humidified incubator with 5% CO2. Cells tested included ACHN, 786-0, HCT-116, SW620, SK-MEL-5, SK-MEL-28, A549, H322, OVCAR-3, SK-OV-3, MCF-7, MDA-MB-231, MOLT4, HL60, SNB-19, PC-3. Cells were treated with media containing chemotherapeutic drugs alone or with media containing chemotherapeutic drugs and a DNA-PK inhibitor of the invention, 1-(2-hydroxy-4-morpholin-4-yl-phenyl)-ethanone. Cells were incubated for two days before growth was measured using a tetrazolium dye assay (MTS). Chemotherapeutic drugs included bleomycin etoposide, vinblastine, doxorubicin, paclitaxel, cisplatin, chlorambucil, cyclophosphamide, 5-fluorouracil, cytosine-arabinoside, 6-mercaptoguanine and methotrexate (all purchased from Sigma). The drug concentration necessary to inhibit cell growth to 50% of untreated control cells was defined as the GI50.

Consider `O=Cc1ccc(N2CCOCC2)cc1O` [Example 32, 2-Hydroxy-4-morpholin-4-yl-benzaldehyde], for which the “duration of high plasma concentration” value in data set [1] is given as “remained high for about one hour”. In addition, the “killing of cell lines, MTS dye metabolism assay” value in data set [2] is given as “no evidence of killing”. Moreover, the IC50 on human DNA-PK was 400 nM. For the same molecule, the “cells sensitive to killing, trypan blue exclusion method” value in [3] is listed as “In no instances were cells sensitive to killing”. Besides, in data set [4], the “DNA rearrangement (V(D)J recombination) inhibited” value is reported as 8 fold. Moreover, in data set [5] (200 μM), the “sensitivity of HCT116 to killing by γ-radiation” value is “increased the sensitivity”. The tumors shrank entry in data set [6] (average tumor burden 500 mg, drug and 300 rad once daily for two days) was “greater than 10 fold”.

As to `CC(=O)c1ccc(N2CCOCC2)cc1O` [Example 34, 1-(2-Hydroxy-4-morpholin-4-yl-phenyl)-ethanone], in data set [1], the “duration of high plasma concentration” value is recorded as “remained high for about one hour”. In addition, the IC50 on human DNA-PK was 120 nM. Besides, the “chromosomal DNA double-strand break repair” value in [7] was “inhibited DNA double-strand break repair”. In addition, in data set [5], the “effect of drug alone on cell division” value is on record as “no effect on cell division”, the “enhancement of etoposide LD50” value turned out to be 15 fold and the “enhancement of etoposide LD90” value came to 3 fold. Moreover, in [5] (200 μM), the “radiation LD50 lower than in the absence of drug” value came out at 4 fold, the “radiation LD90 lower than without drug” value is 4 fold and the “sensitivity of HCT116 to killing by γ-radiation” value is given as “increased the sensitivity”. In addition, the “radiation dosage which kills 50% of the cells (LD50) in the presence of drug” value in data set [5] (200 μM, 150 rad without drug) came to 35 rad. Further, the “radiation dose that kills 90% of the cells (LD90) with drug” value in data set [5] (200 μM, 410 rad without drug) stood at 100 rad. Besides, the “D0, slope of the survival curve, with drug” value in [5] (150 rad without drug) amounted to 50 rad. The “tumor growth with radiation plus drug” value in [6] (250 rad plus drug once daily for five days) was “no increase in tumor growth”. The “GI50 (bleomycin) reduced” value in data set [8] (100 μM inhibitor, two days) came out at 7 fold. The “potentiation of growth inhibitory effects of agents that do not induce DNA dsbs” value in data set [8] (vinblastine, doxorubicin, paclitaxel, cisplatin, cyclophosphamide, 5-fluorouracil, cytosine-arabinoside, 6-mercaptoguanine, methotrexate) is reported as “did not potentiate”. Also, in data set [8] (with inhibitor, two days), the “chlorambucil GI50 reduced” value amounted to 10 fold and the “etoposide GI50 reduced” value stood at 10 fold.

The values are drawn from patent US8242115B2, “Materials and methods to potentiate cancer treatment” (Luitpold Pharmaceuticals, Inc., priority 2000, dated 2012).
